Article PMC7722354, “7-Substituted 2-Nitro-5,6-dihydroimidazo[2,1-b][1,3]oxazines: Novel Antitubercular Agents Lead to a New Preclinical Candidate for Visceral Leishmaniasis” (Journal of Medicinal Chemistry, 2017)
Values after ≈ are worked out from the molar mass of the structure shown. Read-outs that look alike come from different tables or passages of the source.

Columns and labels:
M. tb, strain H37Rv [1] = assay: MABA minimum inhibitory concentration assay (aerobic); type: cell-based, Mycobacterium tuberculosis; details: aerobic, read-out: MIC MABA
Leishmania donovani = assay: L. don amastigote mouse macrophage-based luciferase assay (CDRI); type: cell-based; details: in mouse macrophages, single test (CDRI)
[2] = test system: human lung fibroblasts (MRC-5 cells); assay: cytotoxicity toward MRC-5 cells (LMPH); type: cell-based; details: MRC5
M. tb, strain H37Rv [3] = assay: LORA minimum inhibitory concentration assay (hypoxic); type: cell-based; details: Mycobacterium tuberculosis
[4] = kinetic aqueous solubility (Method A); type: physicochemical; details: 20 °C
Leishmania infantum = assay: L. inf growth inhibition in mouse macrophages (LMPH); type: cell-based; details: Macrophage, mean of at least two determinations
Trypanosoma cruzi = assay: T. cruzi growth inhibition on MRC-5 cells (LMPH); type: cell-based; details: MRC5
L. donovani [5] = assay: acute VL infection assay (L. don mouse model, LSHTM); details: Leishmania donovani, po, 120 h; 50 mg/kg orally once daily 5 days; liver parasite burden; read-out: in vivo efficacy against L. don (mouse), % inhibition
[6] = design: method as in PMID 26901446; details: mice, cited from earlier work
L. donovani [7] = test system: L. donovani; design: method as in PMID 26901446; details: cited from earlier work
[8] = Mycobacterium tuberculosis, H37RV
[9] = 0.1 M HCl, pH 1, kinetic, 0.1 M HCl (pH 1), read-out: aq solubility pH 1
[10] = water, pH 7, kinetic, water (pH 7), read-out: aq solubility pH 7

Compound: O=[N+]([O-])c1cn2c(n1)OC(COc1ccc(-c3ccc(F)cc3F)cn1)CC2 (centres unmarked) [compound 62]
- MIC (M. tb, strain H37Rv [1]; [8]): 0.1 µM (≈ 0.0388 µg/mL)
- IC50 (Leishmania donovani): 0.07 µM
- IC50 [2]: > 64 µM
- MIC (M. tb, strain H37Rv [3]): 2.4 µM (≈ 0.932 µg/mL)
- solubility at 15 min [4, 9]: 1.5 µg/mL (≈ 3.86 µM)
- solubility at 15 min [4, 10]: 0.13 µg/mL (≈ 0.335 µM)
- IC50 (Leishmania infantum): 0.037 µM
- IC50 (Trypanosoma cruzi): 0.03 µM

Compound: O=[N+]([O-])c1cn2c(n1)OC(COc1cnc(-c3ccc(F)cc3)nc1)CC2 (centres unmarked) [compound 139]
- MIC (M. tb, strain H37Rv [1]; [8]): 0.27 µM (≈ 0.1 µg/mL)
- IC50 (Leishmania donovani): 0.07 µM
- IC50 [2]: 62 µM
- MIC (M. tb, strain H37Rv [3]): 20 µM (≈ 7.43 µg/mL)
- solubility at 15 min [4, 10]: 0.59 µg/mL (≈ 1.59 µM)
- IC50 (Leishmania infantum): 0.21 µM
- IC50 (Trypanosoma cruzi): 0.26 µM

Compound: O=[N+]([O-])c1cn2c(n1)OC(COc1cccc(-c3ccc(F)cc3)n1)CC2 (centres unmarked) [compound 99]
- MIC (M. tb, strain H37Rv [1]; [8]): 1.7 µM (≈ 0.63 µg/mL)
- IC50 (Leishmania donovani): 0.31 µM
- IC50 [2]: 59 µM
- MIC (M. tb, strain H37Rv [3]): 3 µM (≈ 1.11 µg/mL)
- solubility at 15 min [4, 9]: 0.56 µg/mL (≈ 1.51 µM)
- solubility at 15 min [4, 10]: 0.027 µg/mL (≈ 0.0729 µM)
- IC50 (Leishmania infantum): 0.14 µM
- IC50 (Trypanosoma cruzi): 0.16 µM

Compound: O=[N+]([O-])c1cn2c(n1)OC(COc1ccc(-c3ccc(F)nc3)cc1)CC2 (centres unmarked) [compound 55, 7-{[4-(6-Fluoropyridin-3-yl)phenoxy]methyl}-2-nitro-6,7-dihydro-5H-imidazo[2,1-b][1,3]oxazine]
- MIC (M. tb, strain H37Rv [1]; [8]): 0.24 µM (≈ 0.0889 µg/mL)
- IC50 (Leishmania donovani): > 10 µM
- IC50 [2]: > 64 µM
- MIC (M. tb, strain H37Rv [3]): 3.5 µM (≈ 1.3 µg/mL)
- solubility at 15 min [4, 10]: 0.36 µg/mL (≈ 0.972 µM)
- IC50 (Leishmania infantum): 0.083 µM
- IC50 (Trypanosoma cruzi): 0.027 µM

Compound: O=[N+]([O-])c1cn2c(n1)OC(COc1ncc(-c3ccc(F)cc3)cn1)CC2 (centres unmarked) [compound 129]
- MIC (M. tb, strain H37Rv [1]; [8]): 0.02 to 0.04 µM (≈ 0.00743 to 0.0149 µg/mL)
- MIC (M. tb, strain H37Rv [1]): 0.04 µM (≈ 0.0149 µg/mL)
- IC50 (Leishmania donovani): 0.1 µM
- IC50 [2]: > 64 µM
- MIC (M. tb, strain H37Rv [3]): 1.7 µM (≈ 0.631 µg/mL)
- solubility at 15 min [4, 10]: 1.8 µg/mL (≈ 4.85 µM)
- IC50 (Leishmania infantum): 0.29 µM
- inhibition in vivo at 50 mg/kg (L. donovani [5]): 85%
- IC50 (Trypanosoma cruzi): 0.17 µM

Compound: CC1(COc2ccc(-c3ccc(F)cc3)cc2)CCn2cc([N+](=O)[O-])nc2O1 (centres unmarked) [compound 52]
- MIC (M. tb, strain H37Rv [1]; [8]): 0.085 µM (≈ 0.0326 µg/mL)
- IC50 (Leishmania donovani): 0.2 µM
- IC50 [2]: > 64 µM
- MIC (M. tb, strain H37Rv [3]): 1.4 µM (≈ 0.537 µg/mL)
- IC50 (Leishmania infantum): 0.34 µM
- IC50 (Trypanosoma cruzi): 0.35 µM

Compound: CC1(CN2CCC(c3ccc(F)cc3)CC2)CCn2cc([N+](=O)[O-])nc2O1 (centres unmarked) [compound 149]
- MIC (M. tb, strain H37Rv [1]; [8]): 0.22 µM (≈ 0.0824 µg/mL)
- IC50 (Leishmania donovani): 1 µM
- IC50 [2]: > 64 µM
- MIC (M. tb, strain H37Rv [3]): 8.3 µM (≈ 3.11 µg/mL)
- IC50 (Leishmania infantum): 0.32 µM
- IC50 (Trypanosoma cruzi): 0.87 µM

Compound: CC1(CN2CCN(c3ccc(F)cc3)CC2)CCn2cc([N+](=O)[O-])nc2O1 (centres unmarked) [compound 144]
- MIC (M. tb, strain H37Rv [1]; [8]): 0.34 µM (≈ 0.128 µg/mL)
- IC50 (Leishmania donovani): 0.7 µM
- IC50 [2]: > 64 µM
- MIC (M. tb, strain H37Rv [3]): 6.8 µM (≈ 2.55 µg/mL)
- IC50 (Leishmania infantum): 0.73 µM
- IC50 (Trypanosoma cruzi): 1.3 µM

Compound: CC1(COc2ncc(-c3ccc(F)cc3)cn2)CCn2cc([N+](=O)[O-])nc2O1 (centres unmarked) [compound 131]
- MIC (M. tb, strain H37Rv [1]; [8]): 0.44 µM (≈ 0.17 µg/mL)
- IC50 (Leishmania donovani): 0.32 µM
- IC50 [2]: 57 µM
- MIC (M. tb, strain H37Rv [3]): 6.3 µM (≈ 2.43 µg/mL)
- IC50 (Leishmania infantum): 0.29 µM
- IC50 (Trypanosoma cruzi): 0.43 µM

Compound: CC1(COc2ccc(OC(F)(F)F)cc2)Cn2cc([N+](=O)[O-])nc2O1 (racemic) [rac-4]
- AUClast ([6]; intravenous 1 mg/kg): 1.69 μg·;h/mL
- C0 ([6]; intravenous 1 mg/kg): 0.88 µg/mL
- CL ([6]; intravenous 1 mg/kg): 0.57 L/h/kg
- Vdss ([6]; intravenous 1 mg/kg): 1.7 L/kg
- t1/2 ([6]; intravenous 1 mg/kg): 2.2 h
- AUClast ([6]; oral 25 mg/kg): 33.5 μ·h/mL
- Cmax ([6]; oral 25 mg/kg): 4.1 µg/mL
- F (oral bioavailability) ([6]; oral 25 mg/kg): 79%
- Tmax ([6]; oral 25 mg/kg): 4.0 h
- % inhibition, L. don mouse model (L. donovani [7]; 6.25 mg/kg po daily for 5 d): 99%
- ED50 (L. donovani [7]; L. don mouse model): 3.0 mg/kg

Compound: CC1(COC(=O)N2CCN(c3ccc(F)cc3)CC2)CCn2cc([N+](=O)[O-])nc2O1 (centres unmarked) [compound 161]
- MIC (M. tb, strain H37Rv [1]; [8]): 3.4 µM (≈ 1.43 µg/mL)
- IC50 (Leishmania donovani): 0.29 µM
- IC50 [2]: > 64 µM
- MIC (M. tb, strain H37Rv [3]): 8.4 µM (≈ 3.52 µg/mL)
- IC50 (Leishmania infantum): 0.72 µM
- IC50 (Trypanosoma cruzi): 3.9 µM

Compound: O=[N+]([O-])c1cn2c(n1)OC(COCc1ccc(-c3ccc(F)cc3)cc1)CC2 (centres unmarked) [compound 25, 7-{[(4′-Fluoro[1,1′-biphenyl]-4-yl)methoxy]methyl}-2-nitro-6,7-dihydro-5H-imidazo[2,1-b][1,3]oxazine]
- MIC (M. tb, strain H37Rv [1]; [8]): 0.08 µM (≈ 0.0307 µg/mL)
- IC50 (Leishmania donovani): 0.02 µM
- IC50 [2]: > 64 µM
- MIC (M. tb, strain H37Rv [3]): 1.3 µM (≈ 0.498 µg/mL)
- IC50 (Leishmania infantum): 0.17 µM
- IC50 (Trypanosoma cruzi): 0.53 µM
